Source: ChEMBL document CHEMBL1201862, “PubChem BioAssay data set” (2004)
One block for each molecule: values may come before it. Calls of active or inactive are those of the source.

Key:
[1] = bead-based luminescence quenchers, dual-tagged ARNT – biochemical, AlphaScreen, cherry-pick, artefact control for ARNT-TACC3 interaction inhibitor project, dose response (AID 651705); assay type: functional;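 also: AlphaScreen bead proximity signal that flags compounds interfering with the detection technology; potency reflects signal decrease which marks the compound as an assay artifact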
[2] = target: Induced myeloid leukemia cell differentiation protein Mcl-1 (Homo sapiens, UniProt Q07820); assay type: functional
[3] = target: DNA damage-inducible transcript 3 protein (Mus musculus, UniProt P35639); assay type: functional, Cricetulus griseus
Melanocortin receptor 4 = Melanocortin receptor 4 (Homo sapiens, UniProt P32245); assay type: functional, cell-based;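 also: Cell-based assay with luminescence read-out, confirmatory dose-response testing for agonist activity of biased ligands at MC4R; human U2OS cells with tagged receptor and beta-arrestin; potency of agonists that increase receptor coupling to beta-arrestin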
[4] = viability of PTEN-deleted HCT116 cells – cell-based, HCT116 PTEN knockout, dose response (AID 1047); assay type: functional;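 also: HCT116 colon tumor cells with PTEN knocked out; cells exposed to compound for 60 hours before readout; potency for loss of cell viability measured by luminescence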
[5] = viability of HCT116 lacking mutant beta-catenin – cell-based, human colon tumor, dose response (AID 1045); assay type: functional;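 also: HCT116 colon tumor cells with beta catenin knocked out; cells exposed to compound for 60 hours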
SUMO-activating enzyme [6] = target: T1, SUMO-activating enzyme (Homo sapiens, UniProt Q9UBT2); test: blockers of SAE1/SAE2–UBC9 SUMO transfer – biochemical, HTRF, uHTS, primary screen (AID 2006); assay type: protein-complex assay
SUMO-activating enzyme [7] = target: T1, SUMO-activating enzyme; test: blockers of UBC9-mediated SUMO conjugation – biochemical, AlphaScreen, SUMOylation inhibitor project, confirmation (AID 2018); assay type: functional
INS1 = test: INS-1E survival protection against cytokine death – cell-based, luminescence, retest, dose response (AID 449756); assay type: functional; settings: Rattus norvegicus;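 also: cell death triggered by IL-1 beta plus TNF-alpha plus IFN-gamma mixture; protective hits raise ATP signal compared with cytokine alone wells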
[8] = target: Potassium voltage-gated channel subfamily KQT member 2 (Rattus norvegicus, UniProt O88943); test: blockers of KCNQ2 channel current – cell-based, automated electrophysiology, set II, rat KCNQ2, dose response (AID 588637); assay type: functional
[9] = target: T2, Apoptotic protease-activating factor 1 (Homo sapiens, UniProt O14727); test: SAR analysis of small molecule Activators of Apaf-1 in a Fluorescent assay.; assay type: functional; settings: read-out: EC50_Mean;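 also: caspase-3 cleavage of fluorogenic Rh110 DEVD substrate downstream of apoptosome activation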
T2 sequence (O14727 whole entry): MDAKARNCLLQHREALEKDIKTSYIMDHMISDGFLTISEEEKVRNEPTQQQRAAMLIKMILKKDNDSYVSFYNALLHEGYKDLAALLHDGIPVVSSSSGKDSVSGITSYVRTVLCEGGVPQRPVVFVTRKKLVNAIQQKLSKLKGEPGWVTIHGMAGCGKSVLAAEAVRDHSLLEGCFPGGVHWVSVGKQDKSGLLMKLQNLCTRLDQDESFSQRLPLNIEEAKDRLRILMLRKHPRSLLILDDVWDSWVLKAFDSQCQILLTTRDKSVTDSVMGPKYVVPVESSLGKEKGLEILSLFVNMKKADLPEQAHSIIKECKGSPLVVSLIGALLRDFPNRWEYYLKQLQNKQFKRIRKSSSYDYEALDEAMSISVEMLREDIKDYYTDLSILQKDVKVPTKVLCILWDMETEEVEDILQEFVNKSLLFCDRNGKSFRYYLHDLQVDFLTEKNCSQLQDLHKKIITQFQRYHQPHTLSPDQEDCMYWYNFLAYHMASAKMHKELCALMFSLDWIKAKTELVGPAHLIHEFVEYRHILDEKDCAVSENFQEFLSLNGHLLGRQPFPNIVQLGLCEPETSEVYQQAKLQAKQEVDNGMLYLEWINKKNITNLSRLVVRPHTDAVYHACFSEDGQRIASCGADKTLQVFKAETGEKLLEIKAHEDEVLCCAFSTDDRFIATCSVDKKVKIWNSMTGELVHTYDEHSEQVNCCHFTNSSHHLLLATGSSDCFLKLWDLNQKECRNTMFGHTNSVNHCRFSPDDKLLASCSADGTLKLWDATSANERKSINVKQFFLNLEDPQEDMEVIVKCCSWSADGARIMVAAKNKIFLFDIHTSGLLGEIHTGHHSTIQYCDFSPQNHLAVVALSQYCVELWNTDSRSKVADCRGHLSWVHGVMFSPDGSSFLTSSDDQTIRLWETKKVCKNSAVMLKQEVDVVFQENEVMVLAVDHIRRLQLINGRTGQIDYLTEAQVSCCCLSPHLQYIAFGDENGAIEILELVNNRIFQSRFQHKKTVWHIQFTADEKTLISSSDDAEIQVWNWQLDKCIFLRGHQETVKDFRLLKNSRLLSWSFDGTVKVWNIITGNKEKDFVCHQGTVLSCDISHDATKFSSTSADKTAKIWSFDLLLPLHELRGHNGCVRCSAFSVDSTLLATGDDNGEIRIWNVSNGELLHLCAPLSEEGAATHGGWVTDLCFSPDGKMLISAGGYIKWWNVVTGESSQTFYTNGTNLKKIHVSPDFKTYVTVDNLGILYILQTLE

[10] = target: T3, Eukaryotic translation initiation factor 2-alpha kinase 3 (Homo sapiens, UniProt Q9NZJ5); test: Dose response cell-based high-throughput screening assay to measure PERK inhibition. [Related pubchem assays: 1416 ]; assay type: functional
T3 sequence (Q9NZJ5 whole entry): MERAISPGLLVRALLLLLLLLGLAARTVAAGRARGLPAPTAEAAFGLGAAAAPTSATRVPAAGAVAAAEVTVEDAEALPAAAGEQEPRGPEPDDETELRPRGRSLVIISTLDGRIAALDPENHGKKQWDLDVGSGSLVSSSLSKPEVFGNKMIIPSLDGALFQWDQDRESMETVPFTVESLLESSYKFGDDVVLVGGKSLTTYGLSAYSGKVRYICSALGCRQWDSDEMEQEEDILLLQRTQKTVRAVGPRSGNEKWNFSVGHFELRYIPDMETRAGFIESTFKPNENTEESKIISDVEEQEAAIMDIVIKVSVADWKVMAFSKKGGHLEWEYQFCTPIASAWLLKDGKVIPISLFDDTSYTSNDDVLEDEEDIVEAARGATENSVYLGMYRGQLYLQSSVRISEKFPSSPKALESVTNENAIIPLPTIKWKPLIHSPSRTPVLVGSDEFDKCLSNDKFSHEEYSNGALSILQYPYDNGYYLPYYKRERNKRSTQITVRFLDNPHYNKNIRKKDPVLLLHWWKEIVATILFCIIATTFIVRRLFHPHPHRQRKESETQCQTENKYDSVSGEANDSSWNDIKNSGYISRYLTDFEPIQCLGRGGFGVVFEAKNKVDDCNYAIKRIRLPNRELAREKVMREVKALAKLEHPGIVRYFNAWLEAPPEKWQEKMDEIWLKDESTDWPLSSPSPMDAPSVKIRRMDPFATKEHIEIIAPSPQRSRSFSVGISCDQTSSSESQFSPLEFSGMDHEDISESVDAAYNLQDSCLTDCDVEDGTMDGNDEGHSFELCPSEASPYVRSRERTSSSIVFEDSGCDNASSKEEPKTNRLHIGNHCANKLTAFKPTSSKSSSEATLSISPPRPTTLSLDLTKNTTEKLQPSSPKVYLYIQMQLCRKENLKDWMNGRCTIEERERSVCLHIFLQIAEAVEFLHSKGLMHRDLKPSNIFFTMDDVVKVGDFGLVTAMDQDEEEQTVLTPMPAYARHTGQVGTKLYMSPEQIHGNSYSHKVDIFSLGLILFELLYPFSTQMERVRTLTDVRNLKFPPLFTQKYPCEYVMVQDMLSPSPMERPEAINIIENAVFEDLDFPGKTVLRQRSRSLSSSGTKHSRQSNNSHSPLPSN

[11] = target: T3, Eukaryotic translation initiation factor 2-alpha kinase 3; test: Counterscreen assay for PERK inhibitors: Dose response cell-based high throughput screening assay to measure inhibition of PERK at 6 hours. [Related pubchem assays: 1522, 1416 ]; assay type: functional
[12] = target: ATP-dependent molecular chaperone HSP82 (Candida albicans (strain WO-1) (Yeast), UniProt C4YTQ8); test: steroid-induced GRE reporter decrease in yeast – S. cerevisiae, luminescence, Hsp90 inhibitor project, dose response (AID 2400); assay type: functional, cell-based;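 also: beta-galactosidase luminescence from glucocorticoid response element reporter as proxy for Hsp90 function; inhibitor potency where signal loss means Hsp90 inhibition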
[13] = target: T4, Serine/threonine-protein phosphatase (Candida dubliniensis (strain CD36 / CBS 7987 / NCPF 3949 / NRRLY-17841) (Yeast), UniProt B9W6M3); test: blockers of CaCl2-induced CDRE-lacZ signaling – S. cerevisiae, luminescence, secondary, dose response (AID 2388); assay type: functional, cell-based;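 also: yeast reporter cells carrying a calcineurin-responsive lacZ construct stimulated with calcium chloride; luminescent beta-galactosidase reporter signal in whole cells rather than isolated phosphatase activity; potency for inhibition where a drop in reporter signal means calcineurin blockade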
T4 sequence (B9W6M3 whole entry): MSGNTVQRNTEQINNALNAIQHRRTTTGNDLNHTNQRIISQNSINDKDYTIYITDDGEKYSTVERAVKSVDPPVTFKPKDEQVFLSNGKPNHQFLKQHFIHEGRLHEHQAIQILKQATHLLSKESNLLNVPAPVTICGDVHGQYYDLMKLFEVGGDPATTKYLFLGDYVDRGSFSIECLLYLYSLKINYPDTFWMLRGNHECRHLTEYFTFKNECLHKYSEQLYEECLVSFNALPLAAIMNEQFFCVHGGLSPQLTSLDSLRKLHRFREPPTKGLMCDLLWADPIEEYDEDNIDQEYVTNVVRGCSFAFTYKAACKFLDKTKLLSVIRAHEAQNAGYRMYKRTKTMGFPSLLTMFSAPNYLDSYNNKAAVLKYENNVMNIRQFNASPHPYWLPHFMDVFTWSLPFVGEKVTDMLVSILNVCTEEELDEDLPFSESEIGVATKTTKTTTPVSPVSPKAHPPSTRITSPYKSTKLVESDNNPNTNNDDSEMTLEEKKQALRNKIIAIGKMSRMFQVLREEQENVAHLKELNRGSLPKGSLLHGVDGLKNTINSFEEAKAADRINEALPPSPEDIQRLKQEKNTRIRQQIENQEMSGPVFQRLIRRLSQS

[14] = tested on: Streptococcus sp. 'group A'; test: Streptococcus pyogenes SK(-)GAS viability under kanamycin – luminescence, BacTiterGlo, confirmation, counter-screen for streptokinase expression inhibitor project, dose response (AID 1900); assay type: functional, organism-based
[15] = mammalian cell viability loss – Alamar Blue, dry powder, cytotoxicity control for antifungal single agent project, dose response (AID 602188); assay type: functional, cell-based
[16] = NIH-3T3 fibroblast cytotoxicity, dose response, cytotoxicity control, cell-based, fluorescence, Alamar Blue, secondary assay (AID 2327); assay type: functional;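 also: NIH-3T3 mouse fibroblasts cultured with fluconazole at 8 µg/mL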
Streptococcus = test: GAS UMAA2166 growth inhibition – luminescence, BacTiterGlo, counter-screen for streptokinase expression inhibitor project, dose response (AID 1915); assay type: functional, organism-based;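 also: potency for reduction of bacterial viability or growth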
[17] = fluconazole-exposed Candida albicans growth modulators – fluorescence, retest, confirmation (AID 2467); assay type: functional, cell-based
[18] = Trypanosoma cruzi growth suppression in host cells – NIH3T3 host cells, beta-gal luminescence, confirmation (AID 2044); assay type: functional, cell-based;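 also: intracellular parasites grown in NIH/3T3 mouse fibroblasts as host cells; luminescent beta-galactosidase reporter signal from transgenic T. cruzi replicating inside host cells; inhibitors lower the luminescence signal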
HEK293 = test: EBV LMP1 TES2 canonical NF-kB signalling blockers – cell-based, HEK293, luciferase, cherry-pick, dose response (AID 588343); assay type: functional; settings: Homo sapiens
[19] = NIH3T3 cell viability loss – ATP luminescence, mouse fibroblasts, counter-screen, dose response (AID 2010); assay type: functional, cell-based;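 also: cells exposed to compound for about 90 hours before reading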
[20] = target: Tyrosine-protein phosphatase non-receptor type 11 (Homo sapiens, UniProt Q06124); test: PTPN11 enzyme inhibitors – biochemical, selectivity assay for STEP inhibitor project, dose response (AID 602367); assay type: functional; settings: read-out: IC50_Mean
[21] = target: Dual specificity protein phosphatase 3 (Homo sapiens, UniProt P51452); test: VHR phosphatase inhibition, dose response, selectivity assay for STEP inhibitor project, biochemical (AID 602374); assay type: functional; settings: read-out: IC50_Mean
[22] = target: Tyrosine-protein phosphatase non-receptor type 5 (Homo sapiens, UniProt P54829); test: PTPN5 enzyme inhibition – biochemical, fluorescence intensity, uHTS hits, confirmation (AID 602372); assay type: functional; settings: read-out: IC50_Mean
[23] = target: T5, Carboxy-terminal domain RNA polymerase II polypeptide A small phosphatase 1 (Homo sapiens, UniProt Q9GZU7); test: CTDSP1 inhibitors, concentration-response, biochemical, absorbance readout, ultra-high-throughput screen actives (AID 540297); assay type: functional
T5 sequence (Q9GZU7 whole entry): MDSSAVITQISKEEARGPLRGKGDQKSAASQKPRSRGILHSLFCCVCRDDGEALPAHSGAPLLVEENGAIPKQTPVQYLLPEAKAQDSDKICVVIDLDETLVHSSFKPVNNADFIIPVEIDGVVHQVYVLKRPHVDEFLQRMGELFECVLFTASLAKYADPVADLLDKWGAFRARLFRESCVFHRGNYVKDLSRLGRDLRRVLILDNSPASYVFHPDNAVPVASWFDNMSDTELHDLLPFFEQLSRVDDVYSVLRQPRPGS

T1 sequence (Q9UBE0 whole entry): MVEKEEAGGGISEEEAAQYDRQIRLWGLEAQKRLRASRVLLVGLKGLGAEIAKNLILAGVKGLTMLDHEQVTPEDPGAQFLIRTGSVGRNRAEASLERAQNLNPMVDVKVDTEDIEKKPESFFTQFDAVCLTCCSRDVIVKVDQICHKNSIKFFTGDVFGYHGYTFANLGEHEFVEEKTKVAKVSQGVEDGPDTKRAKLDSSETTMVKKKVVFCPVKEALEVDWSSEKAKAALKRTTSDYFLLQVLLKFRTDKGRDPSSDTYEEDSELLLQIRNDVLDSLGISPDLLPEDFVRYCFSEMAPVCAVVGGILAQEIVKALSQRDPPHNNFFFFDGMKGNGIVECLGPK
T1 sequence (Q9UBT2 whole entry): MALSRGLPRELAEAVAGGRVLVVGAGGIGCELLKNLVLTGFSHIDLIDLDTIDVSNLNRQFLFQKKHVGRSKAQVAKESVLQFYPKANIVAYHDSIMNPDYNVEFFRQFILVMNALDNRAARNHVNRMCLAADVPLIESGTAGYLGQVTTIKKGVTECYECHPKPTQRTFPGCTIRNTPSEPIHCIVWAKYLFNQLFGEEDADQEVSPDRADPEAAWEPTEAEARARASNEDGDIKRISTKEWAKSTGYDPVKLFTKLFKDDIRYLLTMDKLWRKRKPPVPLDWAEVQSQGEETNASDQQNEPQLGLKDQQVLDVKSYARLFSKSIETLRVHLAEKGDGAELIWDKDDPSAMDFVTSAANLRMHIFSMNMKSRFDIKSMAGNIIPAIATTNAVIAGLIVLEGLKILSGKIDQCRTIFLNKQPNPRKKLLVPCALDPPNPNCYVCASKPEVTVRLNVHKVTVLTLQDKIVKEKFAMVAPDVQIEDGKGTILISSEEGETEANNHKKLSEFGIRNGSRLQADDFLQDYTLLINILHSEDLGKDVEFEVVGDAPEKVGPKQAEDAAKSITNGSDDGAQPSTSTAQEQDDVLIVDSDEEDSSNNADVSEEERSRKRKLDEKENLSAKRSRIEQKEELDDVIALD
Dual specificity protein phosphatase 3, sequence (P51452 whole entry): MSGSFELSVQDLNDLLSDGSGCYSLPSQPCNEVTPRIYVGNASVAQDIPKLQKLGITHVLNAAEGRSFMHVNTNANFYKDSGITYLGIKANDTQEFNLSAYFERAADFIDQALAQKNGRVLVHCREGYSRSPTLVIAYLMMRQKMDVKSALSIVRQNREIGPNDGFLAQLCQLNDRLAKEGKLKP
Induced myeloid leukemia cell differentiation protein Mcl-1, sequence (Q07820 whole entry): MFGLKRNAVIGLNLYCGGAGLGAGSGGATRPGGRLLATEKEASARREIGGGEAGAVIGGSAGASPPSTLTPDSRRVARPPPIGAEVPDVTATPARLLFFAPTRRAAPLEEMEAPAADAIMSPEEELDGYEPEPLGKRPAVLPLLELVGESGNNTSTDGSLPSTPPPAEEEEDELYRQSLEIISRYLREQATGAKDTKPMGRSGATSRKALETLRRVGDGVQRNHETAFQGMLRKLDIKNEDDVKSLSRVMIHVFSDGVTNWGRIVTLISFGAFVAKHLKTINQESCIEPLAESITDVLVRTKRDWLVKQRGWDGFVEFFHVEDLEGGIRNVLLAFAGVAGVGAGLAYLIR
DNA damage-inducible transcript 3 protein, sequence (P35639 whole entry): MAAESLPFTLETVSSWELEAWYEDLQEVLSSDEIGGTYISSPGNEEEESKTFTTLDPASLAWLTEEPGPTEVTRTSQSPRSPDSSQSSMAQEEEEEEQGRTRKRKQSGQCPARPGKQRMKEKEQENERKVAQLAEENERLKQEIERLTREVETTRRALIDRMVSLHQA
ATP-dependent molecular chaperone HSP82, sequence (C4YTQ8 whole entry): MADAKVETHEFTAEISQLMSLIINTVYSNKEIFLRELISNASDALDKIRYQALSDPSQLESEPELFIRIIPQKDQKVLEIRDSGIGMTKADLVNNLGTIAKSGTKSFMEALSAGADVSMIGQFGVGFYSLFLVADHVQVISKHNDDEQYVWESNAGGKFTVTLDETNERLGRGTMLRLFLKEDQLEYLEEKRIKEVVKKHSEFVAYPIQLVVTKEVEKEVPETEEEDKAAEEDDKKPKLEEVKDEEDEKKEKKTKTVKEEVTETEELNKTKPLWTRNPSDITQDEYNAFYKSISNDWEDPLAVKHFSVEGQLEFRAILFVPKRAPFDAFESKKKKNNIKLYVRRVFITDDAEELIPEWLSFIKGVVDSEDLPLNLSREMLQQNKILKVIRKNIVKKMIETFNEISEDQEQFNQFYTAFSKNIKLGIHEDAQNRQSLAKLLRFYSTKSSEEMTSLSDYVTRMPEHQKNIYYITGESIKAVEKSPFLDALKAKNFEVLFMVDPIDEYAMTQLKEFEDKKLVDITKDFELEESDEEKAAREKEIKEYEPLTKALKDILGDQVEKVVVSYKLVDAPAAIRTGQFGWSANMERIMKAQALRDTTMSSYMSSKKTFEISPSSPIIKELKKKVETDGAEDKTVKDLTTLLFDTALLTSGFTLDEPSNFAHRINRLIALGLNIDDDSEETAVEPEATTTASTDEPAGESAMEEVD
Melanocortin receptor 4, sequence (P32245 whole entry): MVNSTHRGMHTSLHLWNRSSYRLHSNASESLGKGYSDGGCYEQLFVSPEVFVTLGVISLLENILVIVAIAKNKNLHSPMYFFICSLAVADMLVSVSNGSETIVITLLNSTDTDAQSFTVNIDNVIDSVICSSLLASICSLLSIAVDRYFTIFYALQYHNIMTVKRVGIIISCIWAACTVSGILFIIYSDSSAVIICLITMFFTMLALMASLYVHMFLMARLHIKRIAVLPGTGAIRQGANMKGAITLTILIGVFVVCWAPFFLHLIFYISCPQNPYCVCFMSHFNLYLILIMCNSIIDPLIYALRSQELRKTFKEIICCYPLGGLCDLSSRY
Tyrosine-protein phosphatase non-receptor type 5, sequence (P54829 whole entry, the tested form may be a part): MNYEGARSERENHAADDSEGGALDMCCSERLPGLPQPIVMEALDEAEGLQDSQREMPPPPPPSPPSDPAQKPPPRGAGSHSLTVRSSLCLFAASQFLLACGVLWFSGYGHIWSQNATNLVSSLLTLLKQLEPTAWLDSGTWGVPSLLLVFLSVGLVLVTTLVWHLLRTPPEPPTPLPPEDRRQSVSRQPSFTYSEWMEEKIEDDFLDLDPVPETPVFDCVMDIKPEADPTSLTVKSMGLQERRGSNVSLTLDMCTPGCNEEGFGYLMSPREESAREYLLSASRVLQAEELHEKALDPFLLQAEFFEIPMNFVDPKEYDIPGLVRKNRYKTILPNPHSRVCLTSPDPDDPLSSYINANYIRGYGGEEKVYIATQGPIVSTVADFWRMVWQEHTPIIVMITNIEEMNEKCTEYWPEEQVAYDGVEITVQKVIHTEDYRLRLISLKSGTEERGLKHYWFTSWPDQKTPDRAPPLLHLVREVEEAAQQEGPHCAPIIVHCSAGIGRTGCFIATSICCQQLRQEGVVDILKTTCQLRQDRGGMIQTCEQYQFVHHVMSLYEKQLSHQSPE
Potassium voltage-gated channel subfamily KQT member 2, sequence (O88943 whole entry): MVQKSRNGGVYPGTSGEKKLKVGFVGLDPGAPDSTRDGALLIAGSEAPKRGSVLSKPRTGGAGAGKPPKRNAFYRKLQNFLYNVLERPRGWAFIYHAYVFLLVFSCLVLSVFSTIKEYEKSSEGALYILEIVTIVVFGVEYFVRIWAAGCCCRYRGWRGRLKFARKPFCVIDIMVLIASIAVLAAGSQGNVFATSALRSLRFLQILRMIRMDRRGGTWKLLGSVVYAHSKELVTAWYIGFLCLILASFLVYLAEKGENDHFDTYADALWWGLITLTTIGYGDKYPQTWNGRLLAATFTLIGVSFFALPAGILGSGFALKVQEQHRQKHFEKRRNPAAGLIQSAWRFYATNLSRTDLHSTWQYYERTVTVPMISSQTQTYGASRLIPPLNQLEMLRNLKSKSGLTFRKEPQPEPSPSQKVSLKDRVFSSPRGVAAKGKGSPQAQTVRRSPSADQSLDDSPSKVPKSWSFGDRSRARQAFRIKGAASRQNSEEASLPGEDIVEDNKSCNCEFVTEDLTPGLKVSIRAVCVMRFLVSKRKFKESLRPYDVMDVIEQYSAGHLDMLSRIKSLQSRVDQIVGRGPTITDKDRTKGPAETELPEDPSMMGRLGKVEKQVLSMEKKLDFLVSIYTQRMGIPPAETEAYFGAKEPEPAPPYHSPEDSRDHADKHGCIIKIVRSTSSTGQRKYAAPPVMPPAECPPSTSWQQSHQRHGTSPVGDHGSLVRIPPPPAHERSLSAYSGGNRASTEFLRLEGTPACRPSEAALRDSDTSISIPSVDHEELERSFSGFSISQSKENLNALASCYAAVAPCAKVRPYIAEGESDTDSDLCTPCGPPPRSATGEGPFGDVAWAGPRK

Compound: O=C(O)c1ccccc1-c1ccccc1C(=O)Nc1ccc2c(c1)nc(O)c1ccccc12
AC50 [1]: 79.9 µM (active)

Compound: O=C(N=Nc1c(O)n(Cc2ccccc2)c2ccccc12)c1cc2ccccc2cc1O
IC50 [2]: 5.39 µM (active)
Absolute IC50 (CHOP) [3]: 10 µM
EC50 (Melanocortin receptor 4): > 89.2 µM (inactive)
EC50 [4]: 4.96 µM (active)
EC50 [5]: 5.03 µM (active)
IC50 (SUMO-activating enzyme [6]): 13.8 µM (active)
IC50 (SUMO-activating enzyme [7]): 12.3 µM (active)
AC50 (INS1): 7.06 µM (active)

IC50 [8]: 8.84 µM (active)
Compound: Cc1ccccc1OCCn1cc(C(=O)C(=O)N2CCOCC2)c2ccccc21

EC50 [9]: > 100 µM (inactive)
EC50 [10]: > 55.7 µM (not active)
EC50 [11]: > 55.7 µM (not active)
Compound: Cc1csc2c(=O)sc(NC(=O)c3ccc(F)cc3)nc12

Compound: COc1ccc(-c2nnc(NC(=O)c3ccc(S(=O)(=O)N4CCCc5ccccc54)cc3)o2)cc1
EC50 [12]: > 150 µM (inactive)
EC50 [13]: > 180 µM (inactive)
EC50 [14]: 186 nM (active)
AC50 [15]: 2.71 µM (active)
EC50 [16]: 32.9 µM (inconclusive)
EC50 (Streptococcus): 855 nM (active)
EC50 [17]: 326 nM (active)
EC50 [18]: 795 nM (active)
AC50 (HEK293): 3.47 µM (active)
EC50 [19]: 5.82 µM (active)

IC50 [20]: 1.13 µM (active)
IC50 [21]: 2.62 µM (active)
IC50 [22]: 30.9 µM (inactive)
IC50 [23]: 3.71 µM (active)
Compound: CCN(c1ccccc1)S(=O)(=O)c1cc(C(=O)OCC(=O)c2c(N)n(C)c(=O)n(C)c2=O)ccc1C
